Laboratory results reported in ChEMBL document CHEMBL4130348, “Structure-activity relationship investigation for benzonaphthyridinone derivatives as novel potent Bruton's tyrosine kinase (BTK) irreversible inhibitors” (Eur J Med Chem, 2017).
One block for each compound: values may come before it. Calls of active or inactive are those of the source. The calls are words filed in the database; no cut-off is given here.

Legend:
CMK = test: Antiproliferative activity against human CMK cells after 72 hrs by CellTiter-Glo assay; assay type: functional
A-431 = test: Antiproliferative activity against human A431 cells after 72 hrs by CellTiter-Glo assay; assay type: functional; conditions: A-431, 72 h
[1] = system: Epidermal growth factor receptor (Homo sapiens), P00533 [T790M]; test: Inhibition of TEL-fused EGFR T790M mutant (unknown origin) expressed in mouse BA/F3 cells after 72 hrs by CellTiter-Glo assay; assay type: cell-based
Rec1 = test: Antiproliferative activity against human Rec1 cells after 72 hrs by CellTiter-Glo assay; assay type: functional; conditions: Rec1, 72 h
NALM-6 = test: Antiproliferative activity against human NALM6 cells after 72 hrs by CellTiter-Glo assay; assay type: functional; conditions: NALM-6, 72 h
NB-4 = test: Antiproliferative activity against human NB4 cells after 72 hrs by CellTiter-Glo assay; assay type: functional; conditions: NB-4, 72 h
[2] = molecular target: T1, Tyrosine-protein kinase BTK (Homo sapiens, UniProt Q06187); test: Inhibition of recombinant full length His-tagged human BTK expressed in baculovirus expression system using poly (4:1 Glu, Tyr) as substrate preincubated for 1 hr followed by substrate addition measured after 1 hr by ADP-glo assay
cells = assay type: functional; conditions: Homo sapiens, CLL cell, 72 h
[3] = system: Tyrosine-protein kinase JAK3; test: Inhibition of TEL-fused JAK3 (unknown origin) expressed in mouse BA/F3 cells after 72 hrs by CellTiter-Glo assay; conditions: Homo sapiens
MOLM-13 [4] = test: Antiproliferative activity against human MOLM13 cells after 72 hrs by CellTiter-Glo assay; assay type: functional; conditions: MOLM-13, 72 h
U2932 = test: Antiproliferative activity against human U2932 cells after 72 hrs by CellTiter-Glo assay; assay type: functional; conditions: U2932, 72 h
[5] = Antiproliferative activity against human PF138 cells after 72 hrs by CellTiter-Glo assay; assay type: functional
[6] = molecular target: Cytoplasmic tyrosine-protein kinase BMX (Homo sapiens) (UniProt P51813)
Description: Inhibition of TEL-fused BMX (unknown origin) expressed in mouse BA/F3 cells after 72 hrs by CellTiter-Glo assay

HL-60 = test: Antiproliferative activity against human HL60 cells after 72 hrs by CellTiter-Glo assay; assay type: functional; conditions: HL-60, 72 h
Z-138 = test: Antiproliferative activity against human Z138 cells after 72 hrs by CellTiter-Glo assay; assay type: functional; conditions: Z-138, 72 h
[7] = molecular target: Tyrosine-protein kinase JAK1 (Homo sapiens) (UniProt P23458); test: Inhibition of TEL-fused JAK1 (unknown origin) expressed in mouse BA/F3 cells after 72 hrs by CellTiter-Glo assay; assay type: cell-based
[8] = molecular target: T1, Tyrosine-protein kinase BTK; test: Inhibition of BTK transphosphorylation at Y551 in anti-IgM stimulated human MOLM13 cells at 100 to 1000 nM after 4 hrs by chemiluminescence assay
MOLM-13 [9] = test: Induction of apoptosis in human MOLM13 cells assessed as PARP cleavage up to 10 uM after 48 hrs by immunoblot method; assay type: functional, cell-based
MOLM-13 [10] = test: Cell cycle arrest in human MOLM13 cells assessed as accumulation at G0/G1 phase up to 10 uM after 48 hrs by propidium iodide staining-based flow cytometric method; assay type: functional
Pfeiffer [11] = test: Cell cycle arrest in human Pfeiffer cells assessed as accumulation at G0/G1 phase up to 10 uM after 48 hrs by propidium iodide staining-based flow cytometric method; assay type: functional
[12] = molecular target: T1, Tyrosine-protein kinase BTK; test: Inhibition of BTK in anti-IgM stimulated human Pfeiffer cells assessed as decrease in PLCgamma2 phosphorylation at Y1217 at 100 to 1000 nM after 4 hrs by chemiluminescence assay; assay type: cell-based
Ramos [13] = test: Induction of apoptosis in human Ramos cells assessed as PARP cleavage up to 10 uM after 48 hrs by immunoblot method; assay type: functional, cell-based
[14] = molecular target: T1, Tyrosine-protein kinase BTK; test: Inhibition of BTK transphosphorylation at Y551 in anti-IgM stimulated human Ramos cells at 100 to 1000 nM after 4 hrs by chemiluminescence assay; assay type: cell-based
Pfeiffer [15] = test: Induction of apoptosis in human Pfeiffer cells assessed as caspase-3 cleavage up to 10 uM after 48 hrs by immunoblot method; assay type: functional, cell-based
[16] = molecular target: T1, Tyrosine-protein kinase BTK; test: Irreversible binding affinity to recombinant full length His-tagged human BTK expressed in baculovirus expression system assessed as modification of Cys481 residue containing fragment at 100 uM after 1 hr by LC/MS-MS method
[17] = molecular target: T1, Tyrosine-protein kinase BTK; test: Irreversible inhibition of recombinant full length His-tagged human BTK expressed in baculovirus expression system using poly (4:1 Glu, Tyr) as substrate preincubated for 2 to 60 mins followed by substrate addition measured after 1 hr by ADP-glo assay
Pfeiffer [18] = test: Induction of apoptosis in human Pfeiffer cells assessed as PARP cleavage up to 10 uM after 48 hrs by immunoblot method; assay type: functional, cell-based
[19] = molecular target: T1, Tyrosine-protein kinase BTK; test: Inhibition of BTK in anti-IgM stimulated human MOLM13 cells assessed as decrease in PLCgamma2 phosphorylation at Y1217 at 100 to 1000 nM after 4 hrs by chemiluminescence assay
[20] = molecular target: T1, Tyrosine-protein kinase BTK; test: Inhibition of BTK transphosphorylation at Y551 in anti-IgM stimulated human Pfeiffer cells at 100 to 1000 nM after 4 hrs by chemiluminescence assay; assay type: cell-based
Ramos [21] = test: Cell cycle arrest in human Ramos cells assessed as accumulation at G0/G1 phase up to 10 uM after 48 hrs by propidium iodide staining-based flow cytometric method; assay type: functional
[22] = molecular target: Tyrosine-protein kinase Blk (Homo sapiens, UniProt P51451); test: Inhibition of recombinant full length His-tagged human BLK expressed in baculovirus expression system using poly (4:1 Glu, Tyr) as substrate preincubated for 1 hr followed by substrate addition measured after 1 hr by ADP-glo assay
[23] = molecular target: Cytoplasmic tyrosine-protein kinase BMX (Homo sapiens, UniProt P51813); test: Inhibition of recombinant full length His-tagged human BMX expressed in baculovirus expression system using poly (4:1 Glu, Tyr) as substrate preincubated for 1 hr followed by substrate addition measured after 1 hr by ADP-glo assay
[24] = molecular target: T1, Tyrosine-protein kinase BTK; test: Inhibition of BTK autophosphorylation at Y223 in anti-IgM stimulated human Pfeiffer cells after 4 hrs by chemiluminescence assay; assay type: cell-based
Ramos [25] = test: Induction of apoptosis in human Ramos cells assessed as caspase-3 cleavage up to 10 uM after 48 hrs by immunoblot method; assay type: functional, cell-based
[26] = molecular target: T1, Tyrosine-protein kinase BTK; test: Inhibition of BTK autophosphorylation at Y223 in anti-IgM stimulated human MOLM13 cells after 4 hrs by chemiluminescence assay
[27] = molecular target: T1, Tyrosine-protein kinase BTK; test: Inhibition of BTK in anti-IgM stimulated human Ramos cells assessed as decrease in PLCgamma2 phosphorylation at Y1217 after 4 hrs by chemiluminescence assay; assay type: cell-based
[28] = molecular target: T1, Tyrosine-protein kinase BTK; test: Inhibition of BTK autophosphorylation at Y223 in anti-IgM stimulated human Ramos cells after 4 hrs by chemiluminescence assay; assay type: cell-based
[29] = molecular target: T1, Tyrosine-protein kinase BTK; test: Irreversible inhibition of recombinant full length His-tagged human BTK expressed in baculovirus expression system using poly (4:1 Glu, Tyr) as substrate assessed as ratio of Kinact to Ki preincubated for 2 to 60 mins followed by substrate addition measured after 1 hr by ADP-glo assay

T1 sequence (Q06187 whole entry): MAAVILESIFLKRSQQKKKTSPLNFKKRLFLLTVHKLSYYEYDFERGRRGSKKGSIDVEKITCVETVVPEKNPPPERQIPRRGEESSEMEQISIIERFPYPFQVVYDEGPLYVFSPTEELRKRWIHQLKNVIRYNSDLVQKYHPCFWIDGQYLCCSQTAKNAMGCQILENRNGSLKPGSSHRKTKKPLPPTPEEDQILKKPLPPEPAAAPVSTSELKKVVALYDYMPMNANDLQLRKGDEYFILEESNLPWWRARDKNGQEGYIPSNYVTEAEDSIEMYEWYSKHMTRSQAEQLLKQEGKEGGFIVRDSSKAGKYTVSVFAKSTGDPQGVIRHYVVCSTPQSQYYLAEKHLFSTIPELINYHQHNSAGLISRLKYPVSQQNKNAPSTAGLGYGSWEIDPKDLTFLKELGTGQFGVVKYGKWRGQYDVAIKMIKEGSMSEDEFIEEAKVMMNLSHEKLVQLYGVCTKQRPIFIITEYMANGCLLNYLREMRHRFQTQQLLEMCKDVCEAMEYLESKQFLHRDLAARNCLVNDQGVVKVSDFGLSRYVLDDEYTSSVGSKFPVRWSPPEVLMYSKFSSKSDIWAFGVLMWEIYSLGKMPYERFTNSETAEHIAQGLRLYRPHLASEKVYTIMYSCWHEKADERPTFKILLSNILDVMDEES
Sequence of Cytoplasmic tyrosine-protein kinase BMX (Homo sapiens) (P51813 whole entry): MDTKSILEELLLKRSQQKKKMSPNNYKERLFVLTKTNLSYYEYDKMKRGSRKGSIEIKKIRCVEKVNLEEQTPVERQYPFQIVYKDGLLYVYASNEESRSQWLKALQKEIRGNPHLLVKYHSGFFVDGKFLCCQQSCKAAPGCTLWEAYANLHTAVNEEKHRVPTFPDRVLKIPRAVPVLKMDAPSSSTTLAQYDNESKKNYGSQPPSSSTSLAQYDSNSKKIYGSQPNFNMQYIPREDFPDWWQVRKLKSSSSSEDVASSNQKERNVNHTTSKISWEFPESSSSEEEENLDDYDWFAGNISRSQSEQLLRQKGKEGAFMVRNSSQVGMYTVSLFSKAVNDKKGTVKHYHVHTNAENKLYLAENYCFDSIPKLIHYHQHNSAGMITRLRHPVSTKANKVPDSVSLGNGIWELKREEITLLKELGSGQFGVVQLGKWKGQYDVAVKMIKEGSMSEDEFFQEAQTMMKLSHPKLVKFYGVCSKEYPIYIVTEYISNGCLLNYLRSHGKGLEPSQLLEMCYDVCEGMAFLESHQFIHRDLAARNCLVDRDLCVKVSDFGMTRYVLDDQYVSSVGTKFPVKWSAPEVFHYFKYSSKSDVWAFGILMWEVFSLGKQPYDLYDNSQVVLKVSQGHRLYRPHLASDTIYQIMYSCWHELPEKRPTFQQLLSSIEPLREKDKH
Sequence of Tyrosine-protein kinase JAK1 (Homo sapiens) (P23458 whole entry, the tested form may be a part): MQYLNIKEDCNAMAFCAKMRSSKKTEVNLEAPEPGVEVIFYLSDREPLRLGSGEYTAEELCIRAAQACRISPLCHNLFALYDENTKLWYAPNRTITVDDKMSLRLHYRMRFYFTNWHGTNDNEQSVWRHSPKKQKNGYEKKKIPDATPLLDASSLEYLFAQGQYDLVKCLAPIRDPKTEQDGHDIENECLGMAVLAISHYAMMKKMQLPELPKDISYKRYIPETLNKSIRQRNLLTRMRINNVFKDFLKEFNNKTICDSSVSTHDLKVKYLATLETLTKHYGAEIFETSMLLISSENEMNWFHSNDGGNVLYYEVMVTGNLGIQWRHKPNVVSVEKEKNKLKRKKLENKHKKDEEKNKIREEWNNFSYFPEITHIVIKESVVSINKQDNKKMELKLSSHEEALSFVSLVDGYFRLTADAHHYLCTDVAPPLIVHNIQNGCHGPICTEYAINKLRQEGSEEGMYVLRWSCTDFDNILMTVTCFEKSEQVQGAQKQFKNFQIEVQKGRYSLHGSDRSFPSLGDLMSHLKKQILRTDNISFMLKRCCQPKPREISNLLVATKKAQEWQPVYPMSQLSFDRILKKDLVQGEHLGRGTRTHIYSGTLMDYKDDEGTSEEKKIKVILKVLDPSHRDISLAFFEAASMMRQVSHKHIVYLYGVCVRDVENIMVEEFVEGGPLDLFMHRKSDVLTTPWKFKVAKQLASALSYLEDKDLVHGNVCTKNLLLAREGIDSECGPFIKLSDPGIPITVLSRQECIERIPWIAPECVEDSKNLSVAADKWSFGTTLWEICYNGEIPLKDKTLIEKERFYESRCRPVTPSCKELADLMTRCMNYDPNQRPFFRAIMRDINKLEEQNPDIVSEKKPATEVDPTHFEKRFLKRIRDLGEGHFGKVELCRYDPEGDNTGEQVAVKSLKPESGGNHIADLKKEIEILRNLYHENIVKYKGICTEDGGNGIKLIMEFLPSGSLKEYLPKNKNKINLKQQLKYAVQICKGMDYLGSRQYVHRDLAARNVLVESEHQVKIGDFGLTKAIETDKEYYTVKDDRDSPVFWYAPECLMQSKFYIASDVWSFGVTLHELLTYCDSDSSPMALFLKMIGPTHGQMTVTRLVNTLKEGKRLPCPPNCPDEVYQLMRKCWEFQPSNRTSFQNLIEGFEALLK
Sequence of Epidermal growth factor receptor (Homo sapiens), P00533 [T790M] (P00533 whole entry T790M, the tested form may be a part): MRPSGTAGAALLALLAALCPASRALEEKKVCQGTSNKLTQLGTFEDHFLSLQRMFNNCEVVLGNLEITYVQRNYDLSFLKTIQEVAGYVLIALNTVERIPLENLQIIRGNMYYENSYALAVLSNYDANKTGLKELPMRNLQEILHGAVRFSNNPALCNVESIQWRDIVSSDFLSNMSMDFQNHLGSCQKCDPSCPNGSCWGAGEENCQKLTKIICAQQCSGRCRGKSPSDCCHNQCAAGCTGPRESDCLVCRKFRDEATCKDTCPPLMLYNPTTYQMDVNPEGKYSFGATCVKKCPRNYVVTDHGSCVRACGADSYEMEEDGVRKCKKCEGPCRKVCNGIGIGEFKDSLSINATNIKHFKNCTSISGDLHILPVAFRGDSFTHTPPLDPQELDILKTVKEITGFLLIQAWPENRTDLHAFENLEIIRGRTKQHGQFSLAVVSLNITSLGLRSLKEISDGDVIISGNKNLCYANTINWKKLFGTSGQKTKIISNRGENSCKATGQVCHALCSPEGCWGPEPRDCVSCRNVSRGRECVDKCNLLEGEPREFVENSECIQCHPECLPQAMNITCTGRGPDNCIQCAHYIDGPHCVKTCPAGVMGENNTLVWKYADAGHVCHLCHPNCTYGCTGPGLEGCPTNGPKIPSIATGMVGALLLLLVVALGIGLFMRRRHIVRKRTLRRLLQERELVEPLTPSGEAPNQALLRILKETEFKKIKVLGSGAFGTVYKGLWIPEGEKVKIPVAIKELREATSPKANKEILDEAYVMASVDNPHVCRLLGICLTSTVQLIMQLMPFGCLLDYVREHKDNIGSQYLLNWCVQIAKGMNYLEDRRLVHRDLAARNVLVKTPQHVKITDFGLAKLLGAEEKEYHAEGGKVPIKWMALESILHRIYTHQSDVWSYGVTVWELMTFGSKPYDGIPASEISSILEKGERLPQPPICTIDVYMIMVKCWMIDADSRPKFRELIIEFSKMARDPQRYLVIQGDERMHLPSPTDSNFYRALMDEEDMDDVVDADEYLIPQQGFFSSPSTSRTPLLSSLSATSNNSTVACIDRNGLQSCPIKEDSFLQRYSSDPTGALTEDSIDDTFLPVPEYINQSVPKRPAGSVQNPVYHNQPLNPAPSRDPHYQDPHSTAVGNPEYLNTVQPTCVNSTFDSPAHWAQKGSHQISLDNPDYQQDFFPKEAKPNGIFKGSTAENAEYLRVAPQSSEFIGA
Sequence of Cytoplasmic tyrosine-protein kinase BMX (P51813 whole entry): as the sequence (P51813 whole entry) above
Sequence of Tyrosine-protein kinase Blk (P51451 whole entry): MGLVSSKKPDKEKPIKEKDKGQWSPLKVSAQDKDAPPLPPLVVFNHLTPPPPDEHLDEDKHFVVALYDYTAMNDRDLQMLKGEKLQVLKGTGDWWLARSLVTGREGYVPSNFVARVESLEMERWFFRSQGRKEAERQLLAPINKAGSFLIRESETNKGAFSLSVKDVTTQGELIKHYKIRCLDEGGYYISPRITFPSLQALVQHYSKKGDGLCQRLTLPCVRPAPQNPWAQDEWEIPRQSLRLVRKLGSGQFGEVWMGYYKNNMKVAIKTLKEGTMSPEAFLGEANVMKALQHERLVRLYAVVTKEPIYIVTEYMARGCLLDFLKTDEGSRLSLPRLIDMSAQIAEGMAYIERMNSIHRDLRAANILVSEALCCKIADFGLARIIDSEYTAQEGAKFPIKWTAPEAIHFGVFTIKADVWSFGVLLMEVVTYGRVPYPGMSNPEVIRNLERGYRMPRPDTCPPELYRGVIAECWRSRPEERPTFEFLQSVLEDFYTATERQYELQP

GI50 (A-431): > 10 µM
GI50 [1]: > 10 µM
IC50 [2]: 6.87 µM
GI50 [3]: > 10 µM
GI50 (MOLM-13 [4]): > 10 µM
GI50 [6]: > 10 µM
GI50 (HL-60): > 10 µM
GI50 [7]: > 10 µM
SMILES: CCC(=O)Nc1cc(-n2c(=O)ccc3cnc4ccc(-n5cccn5)cc4c32)ccc1C
GI50 (CMK): > 10 µM
GI50 (Rec1): > 10 µM
GI50 (NALM-6): > 10 µM
GI50 (NB-4): > 10 µM
GI50 (cells): > 10 µM
GI50 (U2932): > 10 µM
GI50 [5]: > 10 µM
GI50 (Z-138): > 10 µM

inhibition [8]: inactive
GI50 (A-431): 5.1 µM
GI50 [1]: 0.918 µM
inhibition [12]: inactive
inhibition [14]: inactive
Activity [16]: Active
Ki [17]: 0.097 µM
Kinact [17]: 0.07 min⁻¹
inhibition [19]: inactive
inhibition [20]: inactive
IC50 [22]: > 10 µM
IC50 [23]: 0.083 µM
GI50 [3]: 9.67 µM
GI50 (MOLM-13 [4]): 0.59 µM
EC50 [24]: < 3 µM
EC50 [26]: < 0.1 µM
EC50 [27]: < 1 µM
GI50 [6]: 0.018 µM
GI50 (HL-60): 3.8 µM
EC50 [28]: < 0.1 µM
GI50 [7]: 2.67 µM
Ratio [29]: 0.01 µM⁻¹ s⁻¹
SMILES: C=CC(=O)Nc1cc(-n2c(=O)ccc3cnc4ccc(-n5cccn5)cc4c32)ccc1C
GI50 (CMK): 4.3 µM
Activity (MOLM-13 [9]): Active
Activity (MOLM-13 [10]): Active
Activity (Pfeiffer [11]): Active
Activity (Ramos [13]): Active
Activity (Pfeiffer [15]): Active
GI50 (Rec1): 1.6 µM
GI50 (NALM-6): 1.17 µM
Activity (Pfeiffer [18]): Active
GI50 (NB-4): 3.7 µM
GI50 (cells): 3.7 µM
Activity (Ramos [21]): Active
Activity (Ramos [25]): Active
GI50 (U2932): 7.9 µM
GI50 [5]: 8.8 µM
GI50 (Z-138): 8.5 µM
